Measurements published in patent US9284283B2, “Macrocyclic compounds for modulating IL-17” (ENSEMBLE THERAPEUTICS CORPORATION, priority 2012, dated 2016).

Experiments:
IL17A = target: T1, IL17A (Homo sapiens, UniProt Q16552); assay: Surface Plasmon Resonance (SPR) analysis of compound interactions with IL17A; conditions: SPR binding to IL17A
T1 sequence (Q16552 24-155): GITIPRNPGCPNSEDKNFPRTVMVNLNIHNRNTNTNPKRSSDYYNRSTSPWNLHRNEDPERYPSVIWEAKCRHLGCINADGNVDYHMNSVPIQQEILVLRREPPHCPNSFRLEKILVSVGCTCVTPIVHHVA
Procedure, shortened: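 His-tagged IL17A captured on a Ni-NTA chip; five 2- or 3-fold compound dilutions from 50 μM injected for 180 s, 120 s dissociation, in HEPES-saline buffer with 0.5% DMSO. Baseline-subtracted sensorgrams fitted 1:1 for ka, kd and KD; Kd also derived from binding extent per concentration.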

[1] = system: IL-17A induced secretion of IL-6 in primary human RASF cells; assay: Inhibition of IL17A induced secretion of IL6 in human rheumatoid arthritis synovial fibroblast (RASF) cells; format: cell-based; conditions: Homo sapiens, Fibroblast
Procedure, shortened: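 Primary RASF cells (passage 2-8) stimulated 20 h at 37 °C with rhIL-17A (30 ng/mL) pre-incubated 1 h with compound (final 0.03-25 μM, 0.25% DMSO). Supernatant IL-6 measured by ELISA, normalized to WST1 viability; triplicates.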

SMILES | Kd (IL17A) [nM] | IC50 [1] [nM]
COC(=O)[C@@H]1CCCCNC(=O)CCCNC(=O)[C@@H](Cc2ccc(NC(=O)[C@H](Cc3ccccc3F)NC(=O)Cc3ccccc3)cc2)NC(=O)CC2(CCCC2)CC(=O)N1 [Compound 106] | 100 to 1000 | > 10000
COC(=O)[C@@H]1CCCCNC(=O)CNC(=O)[C@@H](Cc2ccc(NC(=O)[C@H](Cc3ccccc3Cl)NC(=O)Cc3ccccc3)cc2)NC(=O)CC2(CCCC2)CC(=O)N1 [Compound 143] | < 100 | 1000 to 10000
COC(=O)[C@@H]1CCCCNC(=O)CNC(=O)[C@@H](Cc2ccc(NC(=O)[C@H](Cc3ccccc3Cl)NC(=O)c3ccccc3)cc2)NC(=O)CC2(CCCC2)CC(=O)N1 [Compound 144] | < 100 | 1000 to 10000
O=C1CNC(=O)[C@@H](Cc2ccc(NC(=O)[C@H](Cc3ccccc3Cl)NC(=O)Cc3ccccc3)cc2)NC(=O)CC2(CCCC2)CC(=O)NCCCCCN1 [Compound 159] | < 100 | 1000 to 10000
O=C1CNC(=O)[C@@H](Cc2ccc(NC(=O)[C@H](Cc3ccc(Cl)cc3Cl)NC(=O)Cc3ccccc3)cc2)NC(=O)CC2(CCCC2)CC(=O)NCCCCCN1 [Compound 185] | < 100 | 1000 to 10000
O=C1CNC(=O)[C@@H](Cc2ccc(NC(=O)[C@@H](NC(=O)Cc3ccccc3)C3CCCCC3)cc2)NC(=O)CC2(CCCC2)CC(=O)NCCCCCN1 [Compound 186] | < 100 | 1000 to 10000
O=C1CNC(=O)[C@@H](Cc2ccc(NC(=O)[C@H](Cc3ccc(Cl)cc3Cl)NC(=O)Cc3ccc(O)cc3)cc2)NC(=O)CC2(CCCC2)CC(=O)NCCCCCN1 [Compound 191] | < 100 | 1000 to 10000
O=C1CNC(=O)[C@@H](Cc2ccc(NC(=O)[C@H](Cc3ccccc3Cl)NC(=O)c3cccnc3)cc2)NC(=O)CC2(CCCC2)CC(=O)NCCCCCN1 [Compound 194] | < 100 | 100 to 1000
O=C1CNC(=O)[C@@H](Cc2ccc(NC(=O)[C@H](Cc3ccccc3Cl)NC(=O)Cc3ccccn3)cc2)NC(=O)CC2(CCCC2)CC(=O)NCCCCCN1 [Compound 226] | < 100 | 1000 to 10000
